Data: patent US10227344B2, “CK2 inhibitors, compositions and methods thereof” (Polaris Pharmaceuticals, Inc., priority 2016, dated 2019)

Legend:
Format in all cases: cell-based
A2780 = test: Cancer cell panel, cell viability (resazurin): Ovarian, A2780; details: 72 hours, labelled drug combined with Example 3
Description: (§1) Cells were plated in 96-well plates and treated for 72 hours with a serially diluted CK2 inhibitor or anti-cancer drug or their combination. The suspension cell lines were treated right after plating, while the adherent cells were allowed to attach overnight prior to the start of the treatment.
(§2) Cell viability was determined by adding resazurin to cell cultures and measuring fluorescence with a plate reader. Relative cell viability was calculated by dividing the cell viability signal from a test sample by that of a non-treated control. […] Bliss Independence and Highest Single Agent models were used to determine if there is synergy, additivity or antagonism between the CK2 inhibitor and an anti-cancer drug.

EOL-1 = test: Cancer cell panel, cell viability (resazurin): Leukemia, EOL-1; details: EOL-1 (Leukemia), 72 hours; labelled drug combined with Example 3
HL60 = test: Cancer cell panel, cell viability (resazurin): Leukemia, HL60; details: 72 hours, labelled drug combined with Example 3
Description: as §1, §2

ZR-75-1 = test: Cancer cell panel, cell viability (resazurin): Breast, ZR-75-1; details: ZR-75-1 (Breast), 72 hours; labelled drug combined with Example 3
Description: as §1, §2

MOLT4 = test: Cancer cell panel, cell viability (resazurin): Leukemia, MOLT4; details: 72 hours, labelled drug combined with Example 3
Description: as §1, §2

A549 = test: Cancer cell panel, cell viability (resazurin): NSCLC, A549; details: 72 hours, labelled drug combined with Example 3
Caov-3 = test: Cancer cell panel, cell viability (resazurin): Ovarian, Caov-3; details: Caov-3 (Ovarian), 72 hours; labelled drug combined with Example 3
Description: as §1, §2

BT-20 = test: Cancer cell panel, cell viability (resazurin): Breast, BT-20; details: BT-20 (Breast), 72 hours; labelled drug combined with Example 3
T47D = test: Cancer cell panel, cell viability (resazurin): Breast, T47D; details: 72 hours, labelled drug combined with Example 3
Mia-Paca-2 = test: Cancer cell panel, cell viability (resazurin): Pancreatic, Mia-Paca-2; details: Mia-Paca-2 (Pancreatic), 72 hours; labelled drug combined with Example 3
DLD-1 = test: Cancer cell panel, cell viability (resazurin): Colon, DLD-1; details: DLD-1 (Colon), 72 hours; labelled drug combined with Example 3
Description: as §1, §2

ACHN = test: Cancer cell panel, cell viability (resazurin): Renal, ACHN; details: 72 hours, labelled drug combined with Example 3
SK-MEL-3 = test: Cancer cell panel, cell viability (resazurin): Melanoma, SK-MEL-3; details: SK-MEL-3 (Melanoma), 72 hours; labelled drug combined with Example 3
Description: as §1, §2

H460 = test: Cancer cell panel, cell viability (resazurin): NSCLC, H460; details: 72 hours, labelled drug combined with Example 3
H1299 = test: Cancer cell panel, cell viability (resazurin): NSCLC, H1299; details: 72 hours, labelled drug combined with Example 3
Description: as §1, §2

SKOV-3 = test: Cancer cell panel, cell viability (resazurin): Ovarian, SKOV-3; details: SKOV-3 (Ovarian), 72 hours; labelled drug combined with Example 3
Colo205 = test: Cancer cell panel, cell viability (resazurin): Colon, Colo205; details: 72 hours, labelled drug combined with Example 3
RPMI8226 = test: Cancer cell panel, cell viability (resazurin): multiple myeloma, RPMI8226; details: 72 hours, labelled drug combined with Example 3
Panc-1 = test: Cancer cell panel, cell viability (resazurin): Pancreatic, Panc-1; details: Panc-1 (Pancreatic), 72 hours; labelled drug combined with Example 3
WM-115 = test: Cancer cell panel, cell viability (resazurin): Melanoma, WM-115; details: WM-115 (Melanoma), 72 hours; labelled drug combined with Example 3
Caki-1 = test: Cancer cell panel, cell viability (resazurin): Renal, Caki-1; details: Caki-1 (Renal), 72 hours; labelled drug combined with Example 3
A375 = test: Cancer cell panel, cell viability (resazurin): Melanoma, A375; details: 72 hours, labelled drug combined with Example 3
K562 = test: Cancer cell panel, cell viability (resazurin): Leukemia, K562; details: 72 hours, labelled drug combined with Example 3
Description: as §1, §2

Raji = test: Cancer cell panel, cell viability (resazurin): Burkitt's Lymphoma, Raji; details: 72 hours, labelled drug combined with Example 3
MDA-MB-157 = test: Cancer cell panel, cell viability (resazurin): Breast, MDA-MB-157; details: MDA-MB-157 (Breast), 72 hours; labelled drug combined with Example 3
HT29 = test: Cancer cell panel, cell viability (resazurin): Colon, HT29; details: 72 hours, labelled drug combined with Example 3
LoVo = test: Cancer cell panel, cell viability (resazurin): Colon, LoVo; details: 72 hours, labelled drug combined with Example 3
Ramos = test: Cancer cell panel, cell viability (resazurin): Burkitt's Lymphoma, Ramos; details: 72 hours, labelled drug combined with Example 3
SkBr-3 = test: Cancer cell panel, cell viability (resazurin): Breast, SkBr-3; details: SkBr-3 (Breast), 72 hours; labelled drug combined with Example 3
MCF7 = test: Cancer cell panel, cell viability (resazurin): Breast, MCF7; details: 72 hours, labelled drug combined with Example 3
Description: as §1, §2

H23 = test: Cancer cell panel, cell viability (resazurin): NSCLC, H23; details: 72 hours, labelled drug combined with Example 3
H1975 = test: Cancer cell panel, cell viability (resazurin): NSCLC, H1975; details: 72 hours, labelled drug combined with Example 3
OVCAR-3 = test: Cancer cell panel, cell viability (resazurin): Ovarian, OVCAR-3; details: OVCAR-3 (Ovarian), 72 hours; labelled drug combined with Example 3
Description: as §1, §2

SK-MEL-24 = test: Cancer cell panel, cell viability (resazurin): Melanoma, SK-MEL-24; details: SK-MEL-24 (Melanoma), 72 hours; labelled drug combined with Example 3
MDA-MB-231 = test: Cancer cell panel, cell viability (resazurin): Breast, MDA-MB-231; details: MDA-MB-231 (Breast), 72 hours; labelled drug combined with Example 3
U266 = test: Cancer cell panel, cell viability (resazurin): multiple myeloma, U266; details: 72 hours, labelled drug combined with Example 3
BxPC3 = test: Cancer cell panel, cell viability (resazurin): Pancreatic, BxPC3; details: 72 hours, labelled drug combined with Example 3
H2122 = test: Cancer cell panel, cell viability (resazurin): NSCLC, H2122; details: 72 hours, labelled drug combined with Example 3
Description: as §1, §2

CCN(CC)CCNC(=O)c1c(C)[nH]c(/C=C2\C(=O)Nc3ccc(F)cc32)c1C [Sunitinib, sunitinib]
synergy, additivity or antagonism of the combination of Example 3 with the anti-cancer drug (A2780): + + + (Synergy relative to each agent alone (CI = 0.4-0.74 by Bliss Independence Model)) | synergy, additivity or antagonism of the combination of Example 3 with the anti-cancer drug (EOL-1): + + (Slight synergy relative to each agent alone (CI = 0.75-0.9 by Bliss Independence Model)) | synergy, additivity or antagonism of the combination of Example 3 with the anti-cancer drug (HL60): + + (Slight synergy relative to each agent alone (CI = 0.75-0.9 by Bliss Independence Model)) | synergy, additivity or antagonism of the combination of Example 3 with the anti-cancer drug (ZR-75-1): + + (Slight synergy relative to each agent alone (CI = 0.75-0.9 by Bliss Independence Model)) | synergy, additivity or antagonism of the combination of Example 3 with the anti-cancer drug (MOLT4): + (Additive relative to each agent alone (CI = 0.9-1 by Bliss Independence Model and <0.9 by Highest Single Agent Model)) | synergy, additivity or antagonism of the combination of Example 3 with the anti-cancer drug (A549): + + + (Synergy relative to each agent alone (CI = 0.4-0.74 by Bliss Independence Model)) | synergy, additivity or antagonism of the combination of Example 3 with the anti-cancer drug (Caov-3): + (Additive relative to each agent alone (CI = 0.9-1 by Bliss Independence Model and <0.9 by Highest Single Agent Model)) | synergy, additivity or antagonism of the combination of Example 3 with the anti-cancer drug (BT-20): + + (Slight synergy relative to each agent alone (CI = 0.75-0.9 by Bliss Independence Model)) | synergy, additivity or antagonism of the combination of Example 3 with the anti-cancer drug (T47D): + (Additive relative to each agent alone (CI = 0.9-1 by Bliss Independence Model and <0.9 by Highest Single Agent Model)) | synergy, additivity or antagonism of the combination of Example 3 with the anti-cancer drug (Mia-Paca-2): + + (Slight synergy relative to each agent alone (CI = 0.75-0.9 by Bliss Independence Model)) | synergy, additivity or antagonism of the combination of Example 3 with the anti-cancer drug (DLD-1): + + (Slight synergy relative to each agent alone (CI = 0.75-0.9 by Bliss Independence Model)) | synergy, additivity or antagonism of the combination of Example 3 with the anti-cancer drug (ACHN): + (Additive relative to each agent alone (CI = 0.9-1 by Bliss Independence Model and <0.9 by Highest Single Agent Model)) | synergy, additivity or antagonism of the combination of Example 3 with the anti-cancer drug (SK-MEL-3): + (Additive relative to each agent alone (CI = 0.9-1 by Bliss Independence Model and <0.9 by Highest Single Agent Model)) | synergy, additivity or antagonism of the combination of Example 3 with the anti-cancer drug (H460): + + (Slight synergy relative to each agent alone (CI = 0.75-0.9 by Bliss Independence Model)) | synergy, additivity or antagonism of the combination of Example 3 with the anti-cancer drug (H1299): + (Additive relative to each agent alone (CI = 0.9-1 by Bliss Independence Model and <0.9 by Highest Single Agent Model)) | synergy, additivity or antagonism of the combination of Example 3 with the anti-cancer drug (SKOV-3): + (Additive relative to each agent alone (CI = 0.9-1 by Bliss Independence Model and <0.9 by Highest Single Agent Model)) | synergy, additivity or antagonism of the combination of Example 3 with the anti-cancer drug (Colo205): + + + + (Strong synergy relative to each agent alone (CI < 0.4 by Bliss Independence Model)) | synergy, additivity or antagonism of the combination of Example 3 with the anti-cancer drug (RPMI8226): + + + + (Strong synergy relative to each agent alone (CI < 0.4 by Bliss Independence Model)) | synergy, additivity or antagonism of the combination of Example 3 with the anti-cancer drug (Panc-1): + + (Slight synergy relative to each agent alone (CI = 0.75-0.9 by Bliss Independence Model)) | synergy, additivity or antagonism of the combination of Example 3 with the anti-cancer drug (WM-115): + + (Slight synergy relative to each agent alone (CI = 0.75-0.9 by Bliss Independence Model)) | synergy, additivity or antagonism of the combination of Example 3 with the anti-cancer drug (Caki-1): + (Additive relative to each agent alone (CI = 0.9-1 by Bliss Independence Model and <0.9 by Highest Single Agent Model)) | synergy, additivity or antagonism of the combination of Example 3 with the anti-cancer drug (A375): + + (Slight synergy relative to each agent alone (CI = 0.75-0.9 by Bliss Independence Model)) | synergy, additivity or antagonism of the combination of Example 3 with the anti-cancer drug (K562): + + + (Synergy relative to each agent alone (CI = 0.4-0.74 by Bliss Independence Model)) | synergy, additivity or antagonism of the combination of Example 3 with the anti-cancer drug (Raji): + + (Slight synergy relative to each agent alone (CI = 0.75-0.9 by Bliss Independence Model)) | synergy, additivity or antagonism of the combination of Example 3 with the anti-cancer drug (MDA-MB-157): + + + (Synergy relative to each agent alone (CI = 0.4-0.74 by Bliss Independence Model)) | synergy, additivity or antagonism of the combination of Example 3 with the anti-cancer drug (HT29): + (Additive relative to each agent alone (CI = 0.9-1 by Bliss Independence Model and <0.9 by Highest Single Agent Model)) | synergy, additivity or antagonism of the combination of Example 3 with the anti-cancer drug (LoVo): + (Additive relative to each agent alone (CI = 0.9-1 by Bliss Independence Model and <0.9 by Highest Single Agent Model)) | synergy, additivity or antagonism of the combination of Example 3 with the anti-cancer drug (Ramos): + + (Slight synergy relative to each agent alone (CI = 0.75-0.9 by Bliss Independence Model)) | synergy, additivity or antagonism of the combination of Example 3 with the anti-cancer drug (SkBr-3): + + (Slight synergy relative to each agent alone (CI = 0.75-0.9 by Bliss Independence Model)) | synergy, additivity or antagonism of the combination of Example 3 with the anti-cancer drug (MCF7): + (Additive relative to each agent alone (CI = 0.9-1 by Bliss Independence Model and <0.9 by Highest Single Agent Model)) | synergy, additivity or antagonism of the combination of Example 3 with the anti-cancer drug (H23): + + + (Synergy relative to each agent alone (CI = 0.4-0.74 by Bliss Independence Model)) | synergy, additivity or antagonism of the combination of Example 3 with the anti-cancer drug (H1975): + + (Slight synergy relative to each agent alone (CI = 0.75-0.9 by Bliss Independence Model)) | synergy, additivity or antagonism of the combination of Example 3 with the anti-cancer drug (OVCAR-3): − − (Antagonistic relative to each agent alone (CI = 1.2-1.49 by Highest Single Agent Model)) | synergy, additivity or antagonism of the combination of Example 3 with the anti-cancer drug (SK-MEL-24): + + + (Synergy relative to each agent alone (CI = 0.4-0.74 by Bliss Independence Model)) | synergy, additivity or antagonism of the combination of Example 3 with the anti-cancer drug (MDA-MB-231): + + (Slight synergy relative to each agent alone (CI = 0.75-0.9 by Bliss Independence Model)) | synergy, additivity or antagonism of the combination of Example 3 with the anti-cancer drug (U266): + (Additive relative to each agent alone (CI = 0.9-1 by Bliss Independence Model and <0.9 by Highest Single Agent Model)) | synergy, additivity or antagonism of the combination of Example 3 with the anti-cancer drug (BxPC3): + + + (Synergy relative to each agent alone (CI = 0.4-0.74 by Bliss Independence Model)) | synergy, additivity or antagonism of the combination of Example 3 with the anti-cancer drug (H2122): + + (Slight synergy relative to each agent alone (CI = 0.75-0.9 by Bliss Independence Model))
